Results from PubChem BioAssay (NCI).
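The compound was tested at five concentrations on cells cultured in 96-well plates, with a 48-hour exposure period. At the TGI there is no net growth.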 Where a SMILES comes first, the peptide text is derived from it. [ ]: non-standard residue; d: D form. Phe(4-NO2) = N[CH](Cc1ccc([N+](=O)[O-])cc1)C(=O)O

Key:
Assay in all cases: NCI-60 cell line screen, 48 h
KM12 colon = tested on: KM12 colon
RPMI-8226 leukemia = tested on: RPMI-8226 leukemia
NCI-H226 lung = tested on: NCI-H226 lung
MDA-N = tested on: MDA-N
TK-10 renal = tested on: TK-10 renal
HCC-2998 colon = tested on: HCC-2998 colon
786-0 renal = tested on: 786-0 renal
OVCAR-4 ovarian = tested on: OVCAR-4 ovarian
HL-60(TB) leukemia = tested on: HL-60(TB) leukemia
SK-MEL-5 melanoma = tested on: SK-MEL-5 melanoma
ACHN renal = tested on: ACHN renal
MDA-MB-435 = tested on: MDA-MB-435
HCT-116 colon = tested on: HCT-116 colon
PC-3 prostate = tested on: PC-3 prostate
SN12C renal = tested on: SN12C renal
EKVX NSCLC = tested on: EKVX NSCLC
T-47D breast = tested on: T-47D breast
SF-295 CNS = tested on: SF-295 CNS

| Compound | TGI (KM12 colon) [µM] | TGI (RPMI-8226 leukemia) [µM] | TGI (NCI-H226 lung) [µM] | TGI (MDA-N) [µM] | TGI (TK-10 renal) [µM] | TGI (HCC-2998 colon) [µM] | TGI (786-0 renal) [µM] | TGI (OVCAR-4 ovarian) [µM] | TGI (HL-60(TB) leukemia) [µM] | TGI (SK-MEL-5 melanoma) [µM] | TGI (ACHN renal) [µM] | TGI (MDA-MB-435) [µM] | TGI (HCT-116 colon) [µM] | TGI (PC-3 prostate) [µM] | TGI (SN12C renal) [µM] | TGI (EKVX NSCLC) [µM] | TGI (T-47D breast) [µM] | TGI (SF-295 CNS) [µM] |
| --- | --- | --- | --- | --- | --- | --- | --- | --- | --- | --- | --- | --- | --- | --- | --- | --- | --- | --- |
| CCSc1cc2c(cc1O)CC[C@@H]1[C@@H]2CC[C@]2(C)[C@@H](O)CC[C@@H]12 | 21.9 | > 100 | 35.1 | 7.66 | 62.3 | 27.5 | 24.5 | 38.7 | > 100 | 22.7 | 24.9 | 10.4 | 32.7 | 18.9 | 35.1 |  |  |  |
| O=C1/C(=C/c2ccco2)N=C2Sc3c(nc[nH]c3=O)N12 | > 100 | > 100 | > 100 | > 100 | > 100 |  | > 100 | > 100 | > 100 | > 100 | > 100 | > 100 | > 100 | > 100 | > 100 | > 100 | > 100 | > 100 |
| COc1ccc(-c2c3c(n(C4OC(COC(C)=O)C(OC(C)=O)C(OC(C)=O)C4OC(C)=O)c(=S)c2C#N)CCC3)cc1 (stereo not drawn) | > 100 | > 100 |  | > 100 | > 100 | > 100 | > 100 | > 100 | > 100 | > 100 | > 100 | > 100 | > 100 | > 100 | > 100 |  |  | > 100 |
| CCOC(=O)c1cc2c3c(c(C(C)=O)c(O)c2[nH]1)N(C(C)=O)CC3 | > 100 | > 100 | > 100 | > 100 | > 100 |  | > 100 |  | > 100 | > 100 | > 100 | > 100 | > 100 | > 100 | > 100 | > 100 | > 100 | > 100 |
| CC1CC/C(=C\c2ccc(N(C)C)cc2)C2=C1C(c1ccc(N(C)C)cc1)NC(=S)N2 (stereo not drawn) | > 100 | > 100 | > 100 | > 100 | > 100 |  | > 100 |  | > 100 | > 100 | > 100 | > 100 | > 100 | > 100 | > 100 | > 100 | > 100 | > 100 |
| CCOC(=O)Cn1c(=O)c2nc(SC)sc2n(-c2ccccc2)c1=S | 94.9 | > 100 | 36.6 | > 100 | 60.1 | > 100 | 30.9 | 35.2 | 59.4 | > 100 | 43.4 | > 100 | > 100 | 84.4 | > 100 |  | > 100 | > 100 |
| O=C(CCCN1CCC(Nc2ccccc2)(c2nnnn2C2CCCCC2)CC1)c1ccc(F)cc1 | 21.5 | 25.1 | 36.5 | 18.1 | 26.1 | 32.1 | 15.9 | 20.5 | 29.6 | 3 | 16.7 | 19.4 | 16.4 | 24.7 | 41 | 9.53 |  | 41.8 |
| CCOC(=O)C1C(C)C2(C#N)C(=N)OC1(C)C2(C#N)C#N (stereo not drawn) | > 100 | 43.8 | > 100 | > 100 | > 100 |  | > 100 |  | 60.3 | 98.5 | > 100 | > 100 | > 100 | > 100 | > 100 | > 100 | > 100 | > 100 |
| CC(C)(C)OC(=O)NC(Cc1ccc(O)cn1)C(=O)O (stereo not drawn) | > 100 | > 100 | > 100 | > 100 | > 100 | > 100 | > 100 | > 100 | > 100 | > 100 | > 100 | > 100 | > 100 | > 100 | > 100 | > 100 |  | > 100 |
| [N-]=[N+]=Nc1c(Cl)c(Cl)nc2ccccc12 | > 100 | > 100 | > 100 | > 100 | > 100 | > 100 | > 100 | > 100 |  | > 100 | > 100 | > 100 | > 100 | > 100 | > 100 | > 100 | > 100 | > 100 |
| C/C=C1\CC2C(=O)CCC2C2c3ccccc3OC12 (stereo not drawn) | > 100 | > 100 | > 100 | 0.24 | > 100 |  | > 100 | > 100 | > 100 | > 100 | > 100 | > 100 | > 100 | > 100 | 0.821 | > 100 |  | > 100 |
| CCOC(=O)C1(C(=O)OCC)C[C@@H](C)[C@@H](O)C1 | > 100 | > 100 | > 100 | > 100 | > 100 |  | > 100 | > 100 | > 100 | > 100 | > 100 | > 100 | > 100 | > 100 | > 100 | > 100 |  | > 100 |
| O=C(NNC1=NCCCCN1)Nc1ccc(Cl)cc1 | > 100 | > 100 | > 100 |  | > 100 | > 100 | > 100 | > 100 | > 100 | > 100 | > 100 | > 100 | > 100 | > 100 |  | > 100 | > 100 | > 100 |
| CC1=NNC(=O)C1C1CC(c2c[nH]c3ccccc23)=NN(C(N)=O)C1=O (stereo not drawn) | 88.3 | > 100 | > 100 | > 100 | > 100 |  | > 100 |  | > 100 | > 100 | > 100 | > 100 | > 100 | > 100 | > 100 | > 100 | > 100 | > 100 |
| O=C(CC(C(=O)c1cccs1)c1ccsc1)c1ccccc1 (stereo not drawn) | > 100 | > 100 | > 100 | > 100 | > 100 | > 100 | > 100 | > 100 |  | > 100 | > 100 | > 100 | > 100 |  | > 100 | > 100 | > 100 | > 100 |
| Cc1ccc(N=NC(=Nc2ccc(Cl)cc2)c2ccc(N(CCC#N)CCC#N)cc2)cc1 | > 100 | > 100 | > 100 | > 100 | 95.8 | 90.1 | > 100 | > 100 |  | > 100 | > 100 | > 100 | > 100 | 92 | > 100 | > 100 | > 100 | > 100 |
| CCCN(CCC)C(=S)N/N=C/c1ccccn1 | 16.1 | 0.566 | 1.14 | 14.8 | 15.1 | 19.6 | 1.07 | 0.9 | 0.207 | 0.954 | 0.384 | 18.8 | 1.58 | 16.1 | 0.678 | 11.3 |  | 21.7 |
| C=C/C(C)=C\CC1[C@](C)(O)CC[C@H]2C(C)(C)C(O)CC[C@]12C (stereo partly drawn) | > 100 | > 100 | > 100 | > 100 | > 100 |  | > 100 | > 100 | > 100 | > 100 | > 100 | > 100 | > 100 | > 100 | > 100 | > 100 |  | > 100 |
| COc1ccc2[nH]cc(C(=O)C(=O)NC34CC5CC(CC(C5)C3)C4)c2c1 | > 100 | 19.8 | > 71.1 | > 100 | > 100 | > 100 | 47.5 | > 100 |  | > 100 | > 100 | > 100 | > 100 | > 100 | 51.9 | > 100 | > 100 | > 54.6 |
| O[C@H]1[C@H](O)[C@@H](O)[C@@]2(O)CC[C@@H]1N2 | > 100 | > 52.4 | > 100 | > 100 | > 100 | > 100 | > 100 | > 100 |  | > 100 | > 100 | > 100 | > 100 | > 100 | > 100 | > 100 | > 100 | > 100 |
| COc1ccc2nc3c([N+](=O)[O-])ccc(NCCCN(C)C)c3c(NCCCN(C)C)c2c1 | 2.54 | 2.53 |  |  | 5.52 | 2.61 | 2.13 | 2.29 | 8.81 | 3.46 |  | > 10 |  | 2.24 | 2.63 | 5.09 | > 10 | 3.01 |
| CC(=O)OCC1OC(n2c3c(cc(C#N)c2=S)CCC3)C(OC(C)=O)C(OC(C)=O)C1OC(C)=O (stereo not drawn) | > 100 | > 100 | > 100 | > 100 | > 100 | > 100 | > 100 | > 100 | > 100 | > 100 | > 100 | > 100 | > 100 | > 100 | > 100 |  | > 100 | > 100 |
| CC(NC(=O)C(Cc1ccc([N+](=O)[O-])cc1)NC(=O)C(N)CCCCN)C(=O)NC(Cc1ccc([N+](=O)[O-])cc1)C(N)=O (stereo not drawn) (H-K[Phe(4-NO2)]A[Phe(4-NO2)]-NH2; configuration not given here) | > 57.4 | > 44.7 | > 100 |  | > 100 | > 64.8 | > 100 | > 100 | > 48.9 | 51.5 | > 100 | > 71.5 | > 100 | > 100 | > 100 | > 100 | > 80.8 | > 70.9 |
| O=C(O)c1nc2ccc(C(F)(F)F)cc2nc1NCc1ccc(Cl)c(Cl)c1 | 33.8 | > 100 | 44.1 | 35.1 |  | 30.5 | 29.3 | 51.4 |  | 37.5 | 30.5 | 30 | 29.7 | 29.4 | 28.8 | 30.4 | 35.2 | 37.2 |
| CN(C)CCNC(=O)c1cccc2c(NC(CS)C(=O)O)c3ccccc3[n+](C)c12 (stereo not drawn) | > 100 | > 100 |  |  | > 100 | > 100 | > 100 | > 100 |  | > 100 | > 100 | > 100 | > 100 | > 100 | > 100 | > 100 | > 100 | > 100 |
| N#Cc1ccc(N2CCOCC2)cc1 | > 100 |  |  | > 100 | > 100 |  | > 100 | > 100 | > 100 | > 100 | > 100 | > 100 | > 100 | > 100 | > 100 | > 100 | > 100 | > 100 |
| O=C(/C=C/c1ccc(C(F)(F)F)cc1)c1c([O-])on[n+]1-c1ccccc1 | 7.1 |  | > 29.9 | 8.69 | 3.07 | 4.18 | 1.71 | 48.9 | 0.459 | 12.7 | 2.94 |  | 3.85 | 9.2 | 7.71 | 5.83 | 3.82 | 20.2 |
| Cc1ccc(-c2n[nH]c(=O)n2NC(=O)c2ccccc2C(=O)O)cc1 | > 100 | > 100 | > 100 | > 100 | > 100 | > 100 | > 100 |  | > 100 | > 100 | > 100 | > 100 | > 100 | > 100 | > 100 |  | > 100 | > 100 |
